The source of these data is BindingDB's records for doi:10.1016/j.ejmech.2016.11.024 (Guangxi Normal University, 2017).

Assay [1] addresses T1, Proteasome subunit beta type-1 (Homo sapiens, UniProt P20618).
T1 sequence (P20618 whole entry): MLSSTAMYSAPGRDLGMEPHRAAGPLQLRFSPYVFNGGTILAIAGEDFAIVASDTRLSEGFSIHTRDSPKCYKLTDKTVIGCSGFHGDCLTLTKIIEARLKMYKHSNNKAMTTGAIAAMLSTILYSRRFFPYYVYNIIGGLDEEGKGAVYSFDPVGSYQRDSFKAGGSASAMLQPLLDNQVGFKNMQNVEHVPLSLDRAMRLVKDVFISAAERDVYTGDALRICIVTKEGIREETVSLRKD
Put plainly: Inhibition of PGPH activity of human 20S proteasome using (Z)-LLE-bNA as substrate by fluorometric method.

In assay [2] the target is Proteasome subunit beta type-2 (Homo sapiens, UniProt P49721). Put plainly: Inhibition of trypsin-like activity of human 20S proteasome using Bz-VGR-AMC as substrate by fluorometric method.
Proteasome subunit beta type-2, sequence (P49721 whole entry): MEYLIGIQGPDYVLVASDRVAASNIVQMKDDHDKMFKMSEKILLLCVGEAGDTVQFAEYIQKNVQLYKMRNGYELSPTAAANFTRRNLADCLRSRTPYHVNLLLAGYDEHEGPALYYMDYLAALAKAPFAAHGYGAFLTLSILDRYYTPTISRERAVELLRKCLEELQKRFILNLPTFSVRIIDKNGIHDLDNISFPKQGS

Regarding `CC[C@H](C)[C@H](NC(=S)Nc1cccc([N+](=O)[O-])c1)C(=O)N[C@H](Cc1ccccc1)C(=O)Nc1cccc(C(F)(F)F)c1`, in assay [1], 35 µM corresponded to half-maximal inhibition (IC50).
As for `CC[C@H](C)[C@H](/N=C(/Nc1cccc(C(F)(F)F)c1)SC)C(=O)N[C@H](Cc1ccccc1)C(=O)Nc1cccc(C(F)(F)F)c1`, in assay [1], half-maximal inhibition (IC50) required 22.6 µM.
In the case of `CC[C@H](C)[C@H](NC(=S)Nc1ccc(C(F)(F)F)cc1)C(=O)N[C@H](Cc1ccccc1)C(=O)Nc1cccc(Br)c1`, the IC50 is 22.7 µM in assay [1] and greater than 50 µM in assay [2].

What is called IC50 is the point on the concentration scale where inhibition reaches its midpoint. Higher therefore signals lower potency.
